Experimental data from publication PMC9873984, “Membrane cholesterol regulates inhibition and substrate transport by the glycine transporter, GlyT2” (Life Science Alliance, 2023).
Changes are numbered by the printed parent chain.

Legend:
GlyT2 L198A mutant = GlyT2 L198A mutant (Homo sapiens, UniProt Q9Y345, L198A)
Description: (§1) GlyT2a (referred to herein as GlyT2) was subcloned into the plasmid oocyte transcription vector (pOTV) for expression in Xenopus laevis oocytes. Oligonucleotide primers incorporating desired mutations were synthesized by Sigma-Aldrich and used to generate point mutations in the GlyT2 cDNA/pOTV construct using the Q5 site-directed mutagenesis kit (New England Biolabs [Genesearch]). Amplified PCR products were transformed into chemically competent E. coli cells and purified using the GeneJET Plasmid Miniprep Kit (Thermo Fisher Scientific). Purified plasmid DNA was sequence-verified by the Australian Genome Research Facility. pOTV constructs were linearized with the restriction enzyme SpeI (New England Biolabs [Genesearch]), and RNA was transcribed by T7 RNA polymerase using the mMESSAGE mMACHINE T7 kit (Thermo Fisher Scientific).
(§2) The transport activity of GlyT2 is an electrogenic process as it couples the transport of glycine to the co-transport of 3 Na^+ and 1 Cl^− and thus can be measured using two-electrode voltage-clamp electrophysiology. Oocytes expressing GlyTs were voltage-clamped at −60 mV, and glycine-induced whole-cell currents were measured using a GeneClamp 500 amplifier (Axon Instruments), and a PowerLab 2/26 chart recorder (ADInstruments) and LabChart Software (ADInstruments).
(§3) Functionality of WT and mutant GlyT2 transporters was assessed by applying increasing concentrations of glycine (1–3,000 µM) in ND96 until a stable current was achieved. Glycine concentrations were applied individually and completely removed from the system via washing with recording buffer before proceeding to the next concentration. EC50 values for each transporter were determined by fitting concentration–response data to the modified Michaelis–Menten equation: I=([Gly].Imax)/(EC50+[Gly]), where I is current in nA, [Gly] is the concentration of glycine, Imax is the current generated by a maximal concentration of glycine, and EC50 is the concentration of glycine that generates a half-maximal current.

GlyT2 Y430F mutant = biological target: T1, GlyT2 Y430F mutant (Homo sapiens, UniProt Q9Y345, Y430F); conditions: read-out: Glycine EC50; Y430F (TM5)
T1 sequence (Q9Y345 1-797 Y430F): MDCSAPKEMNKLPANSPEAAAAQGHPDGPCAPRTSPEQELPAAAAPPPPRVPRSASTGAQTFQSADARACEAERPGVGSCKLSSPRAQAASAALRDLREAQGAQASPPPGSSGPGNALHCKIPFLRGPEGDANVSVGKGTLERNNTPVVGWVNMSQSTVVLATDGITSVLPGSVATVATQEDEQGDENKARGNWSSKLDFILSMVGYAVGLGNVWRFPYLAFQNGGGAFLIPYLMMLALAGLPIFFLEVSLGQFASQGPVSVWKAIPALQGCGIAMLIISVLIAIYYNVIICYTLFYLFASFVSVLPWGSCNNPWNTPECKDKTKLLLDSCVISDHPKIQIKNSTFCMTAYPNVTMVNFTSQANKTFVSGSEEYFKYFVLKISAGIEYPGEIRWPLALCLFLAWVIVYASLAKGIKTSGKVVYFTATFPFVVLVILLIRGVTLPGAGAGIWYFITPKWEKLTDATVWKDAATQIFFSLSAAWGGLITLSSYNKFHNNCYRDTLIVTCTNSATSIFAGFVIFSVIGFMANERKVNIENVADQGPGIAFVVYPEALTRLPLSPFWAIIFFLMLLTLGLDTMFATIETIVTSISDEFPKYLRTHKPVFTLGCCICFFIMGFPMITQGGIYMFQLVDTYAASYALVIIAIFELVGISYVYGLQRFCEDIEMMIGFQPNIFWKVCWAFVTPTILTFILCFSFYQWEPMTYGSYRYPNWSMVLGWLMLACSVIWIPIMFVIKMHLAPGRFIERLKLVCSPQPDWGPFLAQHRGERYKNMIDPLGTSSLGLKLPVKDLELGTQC
Description: as §1, §2, §3

GlyT2 Y430L mutant = biological target: T2, GlyT2 Y430L mutant (Homo sapiens, UniProt Q9Y345, Y430L); conditions: read-out: Glycine EC50; Y430L (TM5)
T2 sequence (Q9Y345 1-797 Y430L): T1 sequence (Q9Y345 1-797 Y430F) with F430L
Description: as §1, §2, §3

GlyT2 L198A mutant, sequence (Q9Y345 whole entry L198A): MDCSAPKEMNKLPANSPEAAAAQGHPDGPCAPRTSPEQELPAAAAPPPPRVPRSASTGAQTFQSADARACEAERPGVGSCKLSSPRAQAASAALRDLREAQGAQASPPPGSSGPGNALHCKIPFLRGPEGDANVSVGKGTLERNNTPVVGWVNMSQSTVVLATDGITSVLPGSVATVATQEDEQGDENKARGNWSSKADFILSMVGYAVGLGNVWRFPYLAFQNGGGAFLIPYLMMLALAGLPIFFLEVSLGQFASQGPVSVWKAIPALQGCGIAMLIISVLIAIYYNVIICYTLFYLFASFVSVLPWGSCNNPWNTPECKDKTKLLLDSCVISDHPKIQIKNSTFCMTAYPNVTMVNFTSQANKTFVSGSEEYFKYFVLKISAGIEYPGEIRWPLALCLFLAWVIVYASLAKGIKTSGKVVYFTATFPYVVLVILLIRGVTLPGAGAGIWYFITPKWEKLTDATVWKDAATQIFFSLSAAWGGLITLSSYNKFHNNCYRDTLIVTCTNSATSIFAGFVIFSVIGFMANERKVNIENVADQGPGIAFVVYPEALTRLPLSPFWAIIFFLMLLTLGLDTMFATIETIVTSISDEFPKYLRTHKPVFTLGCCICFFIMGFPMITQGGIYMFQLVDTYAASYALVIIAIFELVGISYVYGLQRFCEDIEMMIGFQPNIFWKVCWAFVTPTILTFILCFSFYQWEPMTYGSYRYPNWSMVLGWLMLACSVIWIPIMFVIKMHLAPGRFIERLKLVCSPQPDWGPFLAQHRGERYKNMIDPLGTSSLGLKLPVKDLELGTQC

In the case of `NCC(=O)O` [Glycine, glycine], the “Increase of glycine EC50 compared to WT” value (GlyT2 L198A mutant; L198A vs WT) is reported as 1.5 fold, the EC50 (GlyT2 L198A mutant; read-out: Glycine EC50, L198A (TM1)) is reported as 28 µM and the EC50 (GlyT2 Y430F mutant) is reported as 12 µM. For the same molecule, the EC50 (GlyT2 Y430L mutant) was 19 µM.
